Reference: PMC12227259, “PubChem BioAssays 1063: A Poorly Exploited Source of New Antileishmanial Compounds” (Journal of Parasitology Research, 2025)
Read-outs that look alike come from different tables or passages of the source.

How the values were obtained:
[1] = system: L. mexicana promastigotes; assay: Growth inhibition assay of promastigotes (pNPP); format: cell-based, Leishmania (Leishmania) mexicana MNYC/BZ/62/M379; details: Leishmania mexicana, read-out: Promastigotes (IC50 ± SD) L. mexicana
From the text: (§1) Leishmania (Leishmania) amazonensis MHOM/BR/77/LTB0016 reference strain was kindly donated by the Department of Immunology of Fundação Oswaldo Cruz (Fiocruz), Brazil. Leishmania (Leishmania) mexicana MNYC/BZ/62/M379 and L. major MHOM/IL/81/Friedlin reference strains were kindly donated by Paul A. Bates, Division of Biomedical and Life Sciences, Faculty of Health and Medicine, Lancaster University, United Kingdom. Leishmania (Leishmania) infantum MHOM/FR/78/LEM75 was kindly donated by the Department of Parasitology, Faculty of Pharmacy, Universidad Complutense de Madrid, Spain. The promastigotes were cultivated at 26°C in Medium 199 (Gibco, Grand Island, NY, United States) supplemented with 10% heat-inactivated (56°C, 30 min) fetal bovine serum (Gibco, Grand Island, NY, United States) and antibiotics (200 IU penicillin and 200 μg/mL streptomycin). Exponential multiplication of the promastigotes of the four species was attained by passages every 3–4 days. L. mexicana axenic amastigotes were cultured in Schneider's Insect Medium (Sigma-Aldrich, St. Louis, MO, United States) at pH 5.4, supplemented with 20% heat-inactivated fetal bovine serum and antibiotics (as above).
(§2) The growth inhibition assay of promastigotes was conducted according to Bodley et al.'s procedure, with minor modifications. Briefly, 96-well culture plates were seeded with 100 μL culture medium 199 containing 5 × 10^5 log-phase promastigotes and 100 μL of twofold serial dilutions of the test compounds in culture medium. The plates were sealed with parafilm and incubated for 48 h at 26°C. Negative control wells contained promastigotes and DMSO at 0.5%, and positive wells contained promastigotes and 2.7 μM amphotericin B deoxycholate (Gibco, Grand Island, NY, United States). A series of amphotericin B concentrations was also tested in parallel to estimate its IC50 against promastigotes of the three Leishmania strains. After the incubation period, 30 μL of 3 mg/mL p-nitro-phenyl-phosphate (pNPP) (Sigma-Aldrich) in sodium acetate (pH 5.5, Sigma-Aldrich) and 1% Triton X-100 (Sigma-Aldrich) were added to each well. Plates were incubated for other 3 h at 37°C, and 50 μL 0.25 M NaOH (Sigma-Aldrich) was added to change all the produced p-nitro-phenol to its yellow-colored form. Absorbance was then read in a Biotek Epoch microplate reader (Agilent, Santa Clara, CA, United States) at 405 nm. Half-maximal inhibitory concentrations (IC50) were estimated by nonlinear fitting of absorbance versus compound concentration to the sigmoid Emax equation [18]. Each drug concentration was tested in quadruplicate, and the assay was repeated three times.

[2] = system: L. infantum promastigotes; assay: Growth inhibition assay of promastigotes (pNPP); format: cell-based, Leishmania (Leishmania) infantum MHOM/FR/78/LEM75; details: Leishmania infantum, read-out: Promastigotes (IC50 ± SD) L. infantum
From the text: as §1, §2

L. major promastigotes = assay: Growth inhibition assay of promastigotes (pNPP); format: cell-based, L. major MHOM/IL/81/Friedlin; details: Leishmania major, read-out: Promastigotes (IC50 ± SD) L. major
From the text: as §1, §2

[3] = system: L. amazonensis promastigotes; assay: Growth inhibition assay of promastigotes (pNPP); format: cell-based, Leishmania (Leishmania) amazonensis MHOM/BR/77/LTB0016; details: Leishmania amazonensis, read-out: Promastigotes (IC50 ± SD) L. amazonensis
From the text: as §1, §2

[4] = Cytotoxicity, alamar blue; format: cell-based, BALB/c mice; details: BALB/c, read-out: Cytotoxicity (CC50 ± SD)
Procedure: The cytotoxicity of the test compounds was assessed in primary cultures of mouse peritoneal macrophages as reported elsewhere, with minor modifications. Briefly, BALB/c mice were sacrificed by CO2 inhalation, and their peritoneal macrophages were collected by washing the abdominal cavity with cold RPMI 1640 (Gibco, Paisley, Scotland, United Kingdom) culture medium supplemented with antibiotics (sodium penicillin 200 IU and streptomycin 200 μg/mL) and 10% fetal bovine serum. The macrophages were distributed in 96-well culture plates at 10^5 cells/well. After 4 h incubation at 37°C and 5% CO2, the culture medium was replaced by fresh medium containing the test compounds, and the plates were incubated for another 48 h. Afterwards, 20 μL alamar blue (Thermo Fisher Scientific, Oregon, United States) was added per well. Incubation was continued for another 6–8 h at 37°C and 5% CO2 to measure the fluorescence of the reduced dye in a plate reader (excitation: 485 nm, emission: 590, scaling factor: 10/10, Fluoroskan Ascent FL 2.5 plate reader—Thermo Labsystems, Waltham, MA, United States). Fifty percent cytotoxic concentrations (CC50) were estimated by nonlinear fitting to the Emax sigmoid model. Each concentration was tested in triplicate, and each compound was tested in three independent studies.

[5] = system: L. mexicana intracellular amastigotes; assay: Intracellular amastigote transformation and proliferation assay; format: cell-based, Leishmania (Leishmania) mexicana; details: for IC50: Leishmania mexicana, Peritoneal macrophage, read-out: L. mexicana amastigotes (IC50 ± SD)
From the text: as §1
The activity of the test compounds against L. mexicana intracellular amastigotes was carried out by the transformation and proliferation assay as reported elsewhere. Briefly, mouse peritoneal macrophages were obtained by peritoneal lavage of BALB/c mice and cultivated in RPMI 1640 medium supplemented with fetal bovine serum and antibiotics as described above. The cells were seeded in 96-well culture plates at 10^5 cells/well (100 μL) and incubated at 37°C and 5% CO2 for 2 h. Then, macrophages were infected with L. mexicana axenic amastigotes at a rate of three parasites per host cell. After overnight incubation at 37°C and 5% CO2, noninternalized amastigotes and nonadhered macrophages were removed by the elimination of the culture medium and washing with phosphate buffer solution (PBS). Fresh RPMI 1640 medium containing serial dilutions of the test compounds was then added. Amphotericin B was tested in parallel at concentrations from 1.35 to 0.021 μM. Four replicates of each drug concentration were tested in every assay. Plates were incubated for 48 h at 37°C and 5% CO2.

[6] = design: method as in PMID 6576723; details: subcutaneous route; cited from earlier work
L. mexicana = assay: Mouse model of cutaneous leishmaniasis, intralesional treatment; format: in vivo, BALB/c mice; details: for lesion size versus amphotericin B–treated mice: at 21 days
Procedure: Female, 18–20 g, 8–10 weeks old BALB/c mice were supplied by the laboratory animal breeding facility of the Faculty of Medicine, National Autonomous University of México. They were maintained under controlled environmental conditions (room temperature 22°C–25°C, relative humidity 60%–65%, light cycle 12 h light–12 h dark) and were handled by qualified personnel. At the end of studies, mice were sacrificed by CO2 inhalation. The experimental protocol was approved by the Ethics in Research Committee and the Internal Committee on the Care and Use of Lab Animals (Code CICUAL 004-CIC-2019). All the experiments were conducted in accordance with the Mexican Regulation and the Institute of Laboratory Animal Research Guide for the care and use of laboratory animals.
Mice were infected by intradermal injection in the footpads with 10^7 stationary-phase L. mexicana promastigotes. Two weeks later, mice were randomly allocated in seven groups of 6–7 mice each. Four groups were treated intralesionally every 3 days (five doses) with 20 μL of any of the test compounds at 10 mg/mL in DMSO. […] The dorso-plantar thickness of the rear limbs was weekly measured from the beginning of treatment (14 days postinfection) to 2 weeks after the end of treatment. Feet were measured with a Vernier caliper, and lesion sizes were calculated by subtracting the value of the noninfected limb (left) to that of the infected one (right).
Two weeks after the end of treatment, mice were weighed, sacrificed by CO2 inhalation, and necropsied. The weights of the heart, liver, spleen, and left and right kidneys were determined. Both rear limbs were excised at the level of the tibiotarsal joint and weighed to calculate, by difference, the weight of the lesions. The number of parasites in the lesions was estimated by using the limiting dilution assay technique.

Leishmania = details: cited from earlier work
[7] = system: L. donovani axenic amastigotes; design: method as in PMID 27501246; details: cited from earlier work
Trypanosoma cruzi = system: Trypanosoma cruzi; design: method as in PMID 27501246; details: in vitro and in vivo; cited from earlier work
Trypanosoma brucei = system: Trypanosoma brucei; design: method as in PMID 27501246; details: in vitro and in vivo; cited from earlier work
[8] = primary mouse peritoneal macrophages
[9] = intracellular amastigotes in mouse peritoneal macrophages, 48 h, then 72 h transformation at 26°C
[10] = second mention, p = 0.0057 (Compound 5), p = 0.0030 (Compound 6)

## C[C@@H]1[C@H](O)[C@@H](C)/C=C/C=C/C=C/C=C/C=C/C=C/C=C/[C@H](O[C@@H]2O[C@H](C)[C@@H](O)[C@H](N)[C@@H]2O)C[C@@H]2O[C@](O)(C[C@@H](O)C[C@@H](O)[C@H](O)CC[C@@H](O)C[C@@H](O)CC(=O)O[C@H]1C)C[C@H](O)[C@H]2C(=O)O [AmB, amphotericin B deoxycholate, reference compound]
[1]; 48 h at 26°C, pNPP readout
  IC50: 0.042 ± 0.019 µM
[2]; 48 h at 26°C, pNPP readout
  IC50: 0.031 ± 0.002 µM
L. major promastigotes; 48 h at 26°C, pNPP readout
  IC50: 0.031 ± 0.008 µM
[3]; 48 h at 26°C, pNPP readout
  IC50: 0.031 ± 0.007 µM
[4]; [8]
  CC50 at 48 h: 21 ± 2.1 µM
[5]
  Selectivity index: 44
[5]; [9]
  IC50: 0.48 ± 0.02 µM

## COc1ccc2c(c1)sc(=N)n2C [Compound 3]
[1]; 48 h at 26°C, pNPP readout
  IC50: > 50 µM
[2]; 48 h at 26°C, pNPP readout
  IC50: > 50 µM
L. major promastigotes; 48 h at 26°C, pNPP readout
  IC50: > 50 µM
[3]; 48 h at 26°C, pNPP readout
  IC50: 30.6 ± 11 µM
[4]; [8]
  CC50 at 48 h: > 257 µM
[5]; [9]
  IC50: > 50 µM

## C[S+](C)[O-] [DMSO, dimethyl sulfoxide]
[6]
  50% lethal single dose toxicity: 13900 to 20500 mg/kg

## O=C(Cn1cc([N+](=O)[O-])nc1[N+](=O)[O-])N1CCN(c2ccccc2)CC1 [Compound 7]
[1]; 48 h
  IC50: 0.76 ± 0.16 µM
[2]; 48 h
  IC50: 5.9 ± 1 µM
L. major promastigotes; 48 h
  IC50: 2.9 ± 0.56 µM
[3]; 48 h
  IC50: 1.2 ± 0.44 µM
[4]; mouse peritoneal macrophages
  CC50 at 48 h: 25.2 ± 1.9 µM
[5]; in Mus musculus
  IC50: 0.23 ± 0.04 µM

## OC(COc1cccc2ccccc12)CN1CCCC1 (centres unmarked) [Compound 1]
[1]; 48 h at 26°C, pNPP readout
  IC50: > 50 µM
[2]; 48 h at 26°C, pNPP readout
  IC50: 23.4 ± 9.2 µM
L. major promastigotes; 48 h at 26°C, pNPP readout
  IC50: 42.5 ± 7.2 µM
[3]; 48 h at 26°C, pNPP readout
  IC50: > 50 µM
[4]; [8]
  CC50 at 48 h: 125 ± 11 µM
[5]; CC50/IC50 (in amastigotes)
  Selectivity index: 5
[5]; [9]
  IC50: 26.3 ± 8.2 µM

## CN1CCN(Cc2ccccc2Sc2ccccc2)CC1 [Compound 6]
[1]; 48 h at 26°C, pNPP readout
  IC50: 2.3 ± 0.54 µM
[2]; 48 h at 26°C, pNPP readout
  IC50: 2.7 ± 1 µM
L. major promastigotes; 48 h at 26°C, pNPP readout
  IC50: 4.6 ± 2.3 µM
[3]; 48 h at 26°C, pNPP readout
  IC50: 3 ± 0.42 µM
[4]; mouse peritoneal macrophages, 48 h
  CC50: 60.9 ± 10.7 µM
[5]; CC50/IC50 (in amastigotes)
  Selectivity index: 10
[5]; [9]
  IC50: 5.9 ± 2.8 µM
L. mexicana; [10]
  lesion size versus amphotericin B–treated mice: statistically smaller

## CCN1CCN(C(=S)c2ccc(OC)cc2)CC1 [Compound 2]
[1]; 48 h at 26°C, pNPP readout
  IC50: > 50 µM
[2]; 48 h at 26°C, pNPP readout
  IC50: > 50 µM
L. major promastigotes; 48 h at 26°C, pNPP readout
  IC50: > 50 µM
[3]; 48 h at 26°C, pNPP readout
  IC50: > 50 µM
[4]; [8]
  CC50 at 48 h: 127 ± 2.1 µM
[5]; [9]
  IC50: > 50 µM

## CCN(CC)C(=S)SSC(=S)N(CC)CC [disulfiram]
Leishmania
  in vivo activity in an experimental model of cutaneous leishmaniasis: in vivo activity

## Cc1nc(C)c(C(=O)Nc2ccc(F)c(-c3nc4ncc(-c5ccccn5)cn4n3)c2)o1 [GNF 6702]
[7]
  increase in potency on optimization of hit GNF5343: 400 fold
Trypanosoma cruzi
  activity against Trypanosoma cruzi: active
Trypanosoma brucei
  activity against Trypanosoma brucei: active

## Nc1cnn(Cc2ccccc2F)c1 [Compound 4]
[1]; 48 h at 26°C, pNPP readout
  IC50: 11.1 ± 8.2 µM
[2]; 48 h at 26°C, pNPP readout
  IC50: 23.1 ± 7.6 µM
L. major promastigotes; 48 h at 26°C, pNPP readout
  IC50: 11.3 ± 2.2 µM
[3]; 48 h at 26°C, pNPP readout
  IC50: 23.7 ± 9.9 µM
[4]; [8]
  CC50 at 48 h: 172 ± 6.9 µM
[5]; CC50/IC50 (in amastigotes)
  Selectivity index: 19
[5]; [9]
  IC50: 8.9 ± 1.5 µM
L. mexicana; limiting dilution, 2 weeks after the end of treatment, p = 0.0170
  number of parasites in lesions versus controls, distribution-free multiple comparison test: statistically significant differences

## CC(C)OCCCn1c(=N)c(C(N)=S)cc2c(=O)n3ccccc3nc21 [Compound 5]
[1]; 48 h at 26°C, pNPP readout
  IC50: 27.2 ± 6.2 µM
[2]; 48 h at 26°C, pNPP readout
  IC50: 13.8 ± 4.1 µM
L. major promastigotes; 48 h at 26°C, pNPP readout
  IC50: 9.9 ± 1.9 µM
[3]; 48 h at 26°C, pNPP readout
  IC50: 28.6 ± 14.3 µM
[4]; [8]
  CC50 at 48 h: 172 ± 7.9 µM
[5]; [9]
  IC50: 1.1 ± 0.3 µM
L. mexicana; 2 weeks after the end of treatment, p = 0.023
  average lesion weight versus amphotericin B treated mice: statistically lower
L. mexicana; first mention, p = 0.0491
  lesion size versus amphotericin B–treated mice: statistically smaller
L. mexicana; [10]
  lesion size versus amphotericin B–treated mice: statistically smaller
